Data published in US7183267B2, “β-lactamase inhibitors and methods of use thereof” (priority 2003, dated 2007).

Assays:
[1] = test system: methicillin resistant S. aureus ATCC 33591 (MRSA-ATCC); assay: Matrix system: oxacillin plus β-lactamase inhibitor, MRSA-ATCC; type: cell-based; set-up: key to extent of growth (numerical code): 0 = no growth, 1 = faint, 2 = fair, 3 = equal to solvent control
Method: (§1) To each well of a 96 well microtiter plate was added 47.5 μl of MHB. A volume of 2.5 μl of each dilution of oxacillin was then transferred to appropriate wells containing the medium. All wells, except the sterility control wells, were then inoculated with 50 μl of a diluted cell suspension to give a final volume of 100 μl and a final cell density of 5×10^4 CFU/well. The volume in the sterility control wells was adjusted to 100 μl with MHB. A sterile pipette tip was used to mix the contents of each well (one tip was used going from the low to the high concentration in the same column). The microtiter plates were covered with the lids and were placed in large Stratagene Big Blue plates (Cat. # 400041). Four large kimwipes moistened with tap water were placed near the edges of the Stratagene plates to prevent evaporation of the medium. The microtiter plates were incubated for at least 24 hours at 35° C. The plates were then evaluated for growth in each well. Controls included: medium sterility and negative control (medium and bacteria only).
(§2) A numerical code was used to evaluate the extent of growth as indicated below. • 0: absence of growth • 1: barely visible (faint) growth • 2: fair growth but less than the negative solvent control • 3: growth is equivalent to the negative solvent control.
(§3) The lowest dose at which no visible growth is observed was determined to be the MIC value.
The effect of the four compounds of the present invention on oxacillin resistance of the MRSA strains was determined using a matrix system. The β-lactamase inhibitors were tested at 5 doses against up to eleven concentrations of oxacillin. […] A 96-well microtiter plate was used for the matrix system. The procedure was identical to that described above for the MIC determination, with the exception that both oxacillin and one each of the β-lactamase inhibitors was added, 2.5 μl each, to the wells prior to addition of the test organisms.
Matrix Study:Oxacillin and Compound FL201 with MRSA-ATCC
Matrix Study: Oxacillin and Compound Fl202 with MRSA-ATCC

[2] = test system: methicillin resistant S. aureus ATCC 33591 (MRSA-ATCC); assay: MIC assay, broth microdilution, MRSA-ATCC; type: cell-based; conditions: Staphylococcus aureus
Method: (1) methicillin resistant S. aureus ATCC 33591 (MRSA-ATCC). This strain was obtained from American Type Culture Collection (ATCC), Manassas, Md.;
The strains were processed according to procedures recommended by ATCC, or procedures that are routinely used. Single colonies of each organism were picked for purification to generate pure working cultures. Prior to each experiment each strain was subcultured on a fresh Mueller-Hinton agar plate (MHA).
Inocula for the MIC assays were prepared by transferring a tiny portion of one colony from a MHA plate to 2 ml of Mueller-Hinton broth (MHB) such that the estimated cell density was about 10^7 colony forming unit (CFU)/ml. This cell suspension was then further diluted 10-fold (to 10^6 CFU/ml) by transferring the 2 ml cell suspension to 18 ml of MHB. Addition of 50 μl of this dilute cell suspension to 50 μl of growth medium yielded the desired cell density, namely about 5×10^4 CFU/well, or 5×10^5 CFU/ml.
The MIC value of oxacillin was determined using the broth microdilution procedure recommended by the National Committee of Clinical Laboratory Standards (NCCLS, 2000).
The MIC experiments were performed in duplicate in 96-well microtiter plates using MHB. A stock solution of 2.6 mg/0.5 ml was prepared in dimethylsulfoxide (DMSO). A total of 8 two-fold serial dilutions were made with DMSO. Initial oxacillin doses used were (μg/ml): 64, 32, 16, 8, 4, 2, 1, and 0.5. Doses were adjusted in the confirmatory experiment, if needed, in order to establish an actual MIC value.
as §1
The procedure used to determine the antimicrobial activity of the compounds of the present invention was identical to the broth microdilution procedure described above with the exception of the preparation of the stock solutions. Stock solution at concentration of 40.96 mg/0.5 ml was prepared in DMSO for each of the compounds. A total of 8 two-fold dilutions were then made in DMSO. A volume of 2.5 μl of each dilution was delivered to appropriate wells. The initial doses used were (μg/ml): 512, 256, 128, 64, 32, 16, 8, and 4.
as §2, §3
MIC assays were performed with oxacillin and the four compounds. Each of the compounds was tested at the following 8 doses (μg/ml): 512, 256, 128, 64, 32, 16, 8, and 4. Oxacillin was tested at the following 8 doses (μg/ml): 64, 32, 16, 8, 4, 2, 1, and 0.5.

Cc1onc(-c2ccccc2)c1C(=O)N[C@@H]1C(=O)N2[C@@H]1SC(C)(C)[C@@H]2C(=O)O [Oxacillin, reference compound]
0: extent of growth (numerical code) ([1]; oxacillin 64 μg/ml + compound 0 μg/ml)
32 µg/mL: MIC ([2]; MRSA-ATCC, substance alone, at least 24 hours at 35° C., read-out: MIC)
64 µg/mL: MIC ([1]; Staphylococcus aureus, 24 h, matrix study, compound 0 μg/ml)
3: extent of growth (numerical code) ([1]; oxacillin 0.064 μg/ml + compound 0 μg/ml) | extent of growth (numerical code) ([1]; oxacillin 0.125 μg/ml + compound 0 μg/ml) | extent of growth (numerical code) ([1]; oxacillin 0.25 μg/ml + compound 0 μg/ml) | extent of growth (numerical code) ([1]; oxacillin 0.5 μg/ml + compound 0 μg/ml) | extent of growth (numerical code) ([1]; oxacillin 1 μg/ml + compound 0 μg/ml) | extent of growth (numerical code) ([1]; oxacillin 2 μg/ml + compound 0 μg/ml) | extent of growth (numerical code) ([1]; oxacillin 4 μg/ml + compound 0 μg/ml) | extent of growth (numerical code) ([1]; oxacillin 8 μg/ml + compound 0 μg/ml)
2: extent of growth (numerical code) ([1]; oxacillin 16 μg/ml + compound 0 μg/ml) | extent of growth (numerical code) ([1]; oxacillin 32 μg/ml + compound 0 μg/ml)

O=C(OCc1ccccc1)c1cc(B(O)O)cc([N+](=O)[O-])c1 [Compound F1201]
3: extent of growth (numerical code) ([1]; oxacillin 0 μg/ml + compound 1 μg/ml) | extent of growth (numerical code) ([1]; oxacillin 0 μg/ml + compound 2 μg/ml)
16 µg/mL: MIC of oxacillin ([1]; matrix study, with compound 1 μg/ml)
1: extent of growth (numerical code) ([1]; oxacillin 0 μg/ml + compound 8 μg/ml) | extent of growth (numerical code) ([1]; oxacillin 0.064 μg/ml + compound 1 μg/ml) | extent of growth (numerical code) ([1]; oxacillin 0.064 μg/ml + compound 2 μg/ml) | extent of growth (numerical code) ([1]; oxacillin 0.064 μg/ml + compound 4 μg/ml) | extent of growth (numerical code) ([1]; oxacillin 0.125 μg/ml + compound 1 μg/ml) | extent of growth (numerical code) ([1]; oxacillin 0.125 μg/ml + compound 2 μg/ml) | extent of growth (numerical code) ([1]; oxacillin 0.125 μg/ml + compound 4 μg/ml) | extent of growth (numerical code) ([1]; oxacillin 0.25 μg/ml + compound 1 μg/ml) | extent of growth (numerical code) ([1]; oxacillin 0.25 μg/ml + compound 2 μg/ml) | extent of growth (numerical code) ([1]; oxacillin 0.25 μg/ml + compound 4 μg/ml) | extent of growth (numerical code) ([1]; oxacillin 0.5 μg/ml + compound 1 μg/ml) | extent of growth (numerical code) ([1]; oxacillin 0.5 μg/ml + compound 2 μg/ml) | extent of growth (numerical code) ([1]; oxacillin 1 μg/ml + compound 1 μg/ml) | extent of growth (numerical code) ([1]; oxacillin 1 μg/ml + compound 2 μg/ml) | extent of growth (numerical code) ([1]; oxacillin 2 μg/ml + compound 1 μg/ml) | extent of growth (numerical code) ([1]; oxacillin 4 μg/ml + compound 1 μg/ml) | extent of growth (numerical code) ([1]; oxacillin 8 μg/ml + compound 1 μg/ml)
2: extent of growth (numerical code) ([1]; oxacillin 0 μg/ml + compound 4 μg/ml)
0.5 µg/mL: MIC of oxacillin ([1]; matrix study, with compound 4 μg/ml)
<0.064 µg/mL: MIC of oxacillin ([1]; matrix study, with compound 8 μg/ml)
0: extent of growth (numerical code) ([1]; oxacillin 0 μg/ml + compound 16 μg/ml) | extent of growth (numerical code) ([1]; oxacillin 0.064 μg/ml + compound 8 μg/ml) | extent of growth (numerical code) ([1]; oxacillin 0.064 μg/ml + compound 16 μg/ml) | extent of growth (numerical code) ([1]; oxacillin 0.125 μg/ml + compound 8 μg/ml) | extent of growth (numerical code) ([1]; oxacillin 0.125 μg/ml + compound 16 μg/ml) | extent of growth (numerical code) ([1]; oxacillin 0.25 μg/ml + compound 8 μg/ml) | extent of growth (numerical code) ([1]; oxacillin 0.25 μg/ml + compound 16 μg/ml) | extent of growth (numerical code) ([1]; oxacillin 0.5 μg/ml + compound 4 μg/ml) | extent of growth (numerical code) ([1]; oxacillin 0.5 μg/ml + compound 8 μg/ml) | extent of growth (numerical code) ([1]; oxacillin 0.5 μg/ml + compound 16 μg/ml) | extent of growth (numerical code) ([1]; oxacillin 1 μg/ml + compound 4 μg/ml) | extent of growth (numerical code) ([1]; oxacillin 1 μg/ml + compound 8 μg/ml) | extent of growth (numerical code) ([1]; oxacillin 1 μg/ml + compound 16 μg/ml) | extent of growth (numerical code) ([1]; oxacillin 2 μg/ml + compound 2 μg/ml) | extent of growth (numerical code) ([1]; oxacillin 2 μg/ml + compound 4 μg/ml) | extent of growth (numerical code) ([1]; oxacillin 2 μg/ml + compound 8 μg/ml) | extent of growth (numerical code) ([1]; oxacillin 2 μg/ml + compound 16 μg/ml) | extent of growth (numerical code) ([1]; oxacillin 4 μg/ml + compound 2 μg/ml) | extent of growth (numerical code) ([1]; oxacillin 4 μg/ml + compound 4 μg/ml) | extent of growth (numerical code) ([1]; oxacillin 4 μg/ml + compound 8 μg/ml) | extent of growth (numerical code) ([1]; oxacillin 4 μg/ml + compound 16 μg/ml) | extent of growth (numerical code) ([1]; oxacillin 8 μg/ml + compound 2 μg/ml) | extent of growth (numerical code) ([1]; oxacillin 8 μg/ml + compound 4 μg/ml) | extent of growth (numerical code) ([1]; oxacillin 8 μg/ml + compound 8 μg/ml) | extent of growth (numerical code) ([1]; oxacillin 8 μg/ml + compound 16 μg/ml) | extent of growth (numerical code) ([1]; oxacillin 16 μg/ml + compound 1 μg/ml) | extent of growth (numerical code) ([1]; oxacillin 16 μg/ml + compound 2 μg/ml) | extent of growth (numerical code) ([1]; oxacillin 16 μg/ml + compound 4 μg/ml) | extent of growth (numerical code) ([1]; oxacillin 16 μg/ml + compound 8 μg/ml) | extent of growth (numerical code) ([1]; oxacillin 16 μg/ml + compound 16 μg/ml) | extent of growth (numerical code) ([1]; oxacillin 32 μg/ml + compound 1 μg/ml) | extent of growth (numerical code) ([1]; oxacillin 32 μg/ml + compound 2 μg/ml) | extent of growth (numerical code) ([1]; oxacillin 32 μg/ml + compound 4 μg/ml) | extent of growth (numerical code) ([1]; oxacillin 32 μg/ml + compound 8 μg/ml) | extent of growth (numerical code) ([1]; oxacillin 32 μg/ml + compound 16 μg/ml) | extent of growth (numerical code) ([1]; oxacillin 64 μg/ml + compound 1 μg/ml) | extent of growth (numerical code) ([1]; oxacillin 64 μg/ml + compound 2 μg/ml) | extent of growth (numerical code) ([1]; oxacillin 64 μg/ml + compound 4 μg/ml) | extent of growth (numerical code) ([1]; oxacillin 64 μg/ml + compound 8 μg/ml) | extent of growth (numerical code) ([1]; oxacillin 64 μg/ml + compound 16 μg/ml)
32 µg/mL: MIC ([2]; 24 h)
2 µg/mL: MIC of oxacillin ([1]; matrix study, with compound 2 μg/ml)
